According to patent US20060211026A1, “Methods for assessing emphysema” (Roche Palo Alto LLC, priority 2005, published 2006):

Key:
Type in all cases: in vivo, Sprague-Dawley rats
[1] = system: gene expression in lung right lobes of 8 months smoked rats; assay: Lung gene expression by quantitative PCR in smoke-exposed rats; conditions: for Adam17 gene expression relative to 8 months smoked rats / Angpt1 gene expression relative to 8 months smoked rats / Areg gene expression relative to 8 months smoked rats / Colla1 gene expression relative to 8 months smoked rats / Crabp2 gene expression relative to 8 months smoked rats / Csf2 gene expression relative to 8 months smoked rats / Cxcl1 gene expression relative to 8 months smoked rats / Cxcl2 gene expression relative to 8 months smoked rats / Cxcl5 gene expression relative to 8 months smoked rats / Cyp26a1 gene expression relative to 8 months smoked rats / EGFR gene expression relative to 8 months smoked rats / Eln gene expression relative to 8 months smoked rats / FGF7 gene expression relative to 8 months smoked rats / Flt1 gene expression relative to 8 months smoked rats / Hif1a gene expression relative to 8 months smoked rats / HpGF gene expression relative to 8 months smoked rats / Hyou1 gene expression relative to 8 months smoked rats / Il6 gene expression relative to 8 months smoked rats / Il8ra/CXCR1 gene expression relative to 8 months smoked rats / Il8rb/CXCR2 gene expression relative to 8 months smoked rats / Kdr gene expression relative to 8 months smoked rats / Mmp9 gene expression relative to 8 months smoked rats / Mmp12 gene expression relative to 8 months smoked rats / PDGFA gene expression relative to 8 months smoked rats / Pgf gene expression relative to 8 months smoked rats / Rbp1 gene expression relative to 8 months smoked rats / Serpina1 gene expression relative to 8 months smoked rats / Sftpa1 gene expression relative to 8 months smoked rats / Sftpb gene expression relative to 8 months smoked rats / Slpi gene expression relative to 8 months smoked rats / TNF gene expression relative to 8 months smoked rats / Tek gene expression relative to 8 months smoked rats / Tgfb1 gene expression relative to 8 months smoked rats / Tgfbr2 gene expression relative to 8 months smoked rats / Tgm2 gene expression relative to 8 months smoked rats / Timp3 gene expression relative to 8 months smoked rats / VEGFa gene expression relative to 8 months smoked rats: rat lung
Experimental: (§1) (B) Adult male Sprague-Dawley rats were exposed daily to 10 cigarettes/rat for 8 months (control rats were exposed to air) to establish emphysema lesions. […] Supernatant from homogenized lung tissue was analyzed for concentration of tropoelastin by ELISA (using rabbit anti-tropoelastin; Elastin Products Co.).
RNA prepared from snap-frozen lung right lobes was analyzed for gene expression by quantitative PCR, using ABI Taqman following standard procedures.

[2] = system: gene expression in lung right lobes of 8 months smoked rats; assay: Lung gene expression by Affymetrix microarray in smoke-exposed rats
Experimental: as §1
Three individual lung right lobes from each condition were processed to extract mRNA according to standard Affymetrix protocols, and samples hybridized to Affymetrix Rat Expression Set 230 microarrays. Gene expression was analyzed using the Bioconductor package (Gentleman et al., Genome Biol (2004) v. 5), and differentially expressed genes selected using ANOVA model followed by Dunnett's test.

tropoelastin = assay: Tropoelastin ELISA in homogenized lung tissue of smoke-exposed rats; conditions: oral daily 30 days after 8 months smoke; ATRA 3 mg/kg, R667 0.07-0.7 mg/kg; FIG. 1
Experimental: FIG. 1 depicts the amount of tropoelastin (in ng) measured in rats after treatment as set forth in Example 1(B).
as §1

[3] = R667 0.07 mg/kg oral daily 30 days
[4] = R667 0.15 mg/kg oral daily 30 days
[5] = R667 0.7 mg/kg oral daily 30 days

## CC1(C)CCC(C)(C)c2cc(Cn3cccn3)c(C=Cc3ccc(C(=O)O)cc3)cc21 [R667, 4-[2-(5,5,8,8-tetramethyl-3-pyrazol-1-ylmethyl-5,6,7,8-tetrahydronaphthalen2-yl)-vinyl]-benzoic acid]
[1]; [3]
  Adam17 gene expression relative to 8 months smoked rats: 3.5
  Angpt1 gene expression relative to 8 months smoked rats: 3.8
  Areg gene expression relative to 8 months smoked rats: 5.9
  Colla1 gene expression relative to 8 months smoked rats: 7.1
  Crabp2 gene expression relative to 8 months smoked rats: 2.0
  Csf2 gene expression relative to 8 months smoked rats: 1.5
  Cxcl1 gene expression relative to 8 months smoked rats: 3.3
  Cxcl2 gene expression relative to 8 months smoked rats: 2.3
  Cxcl5 gene expression relative to 8 months smoked rats: 50.1
  Cyp26a1 gene expression relative to 8 months smoked rats: 2.2
  EGFR gene expression relative to 8 months smoked rats: 4.8
  Eln gene expression relative to 8 months smoked rats: 5.6
  FGF7 gene expression relative to 8 months smoked rats: 2.1
  Flt1 gene expression relative to 8 months smoked rats: 1.7
  Hif1a gene expression relative to 8 months smoked rats: 1.7
  HpGF gene expression relative to 8 months smoked rats: 3.0
  Hyou1 gene expression relative to 8 months smoked rats: 2.7
  Il6 gene expression relative to 8 months smoked rats: 1.8
  Il8ra/CXCR1 gene expression relative to 8 months smoked rats: 3.8
  Il8rb/CXCR2 gene expression relative to 8 months smoked rats: 2.0
  Kdr gene expression relative to 8 months smoked rats: 1.3
  Mmp9 gene expression relative to 8 months smoked rats: 1.7
  Mmp12 gene expression relative to 8 months smoked rats: 4.9
  PDGFA gene expression relative to 8 months smoked rats: 4.3
  Pgf gene expression relative to 8 months smoked rats: 1.6
  Rbp1 gene expression relative to 8 months smoked rats: 2.1
  Serpina1 gene expression relative to 8 months smoked rats: 2.3
  Sftpa1 gene expression relative to 8 months smoked rats: 5.4
  Sftpb gene expression relative to 8 months smoked rats: 1.9
  Slpi gene expression relative to 8 months smoked rats: 3.6
  TNF gene expression relative to 8 months smoked rats: 3.3
  Tek gene expression relative to 8 months smoked rats: 1.4
  Tgfb1 gene expression relative to 8 months smoked rats: 1.4
  Tgfbr2 gene expression relative to 8 months smoked rats: 2.0
  Tgm2 gene expression relative to 8 months smoked rats: 16.2
  Timp3 gene expression relative to 8 months smoked rats: 3.5
  VEGFa gene expression relative to 8 months smoked rats: 1.6
[1]; [4]
  Adam17 gene expression relative to 8 months smoked rats: 3.6
  Angpt1 gene expression relative to 8 months smoked rats: 1.8
  Areg gene expression relative to 8 months smoked rats: 3.7
  Colla1 gene expression relative to 8 months smoked rats: 8.4
  Crabp2 gene expression relative to 8 months smoked rats: 1.5
  Csf2 gene expression relative to 8 months smoked rats: 1.9
  Cxcl1 gene expression relative to 8 months smoked rats: 2.9
  Cxcl2 gene expression relative to 8 months smoked rats: 1.6
  Cxcl5 gene expression relative to 8 months smoked rats: 50.0
  Cyp26a1 gene expression relative to 8 months smoked rats: 3.9
  EGFR gene expression relative to 8 months smoked rats: 3.2
  Eln gene expression relative to 8 months smoked rats: 6.1
  FGF7 gene expression relative to 8 months smoked rats: 2.1
  Flt1 gene expression relative to 8 months smoked rats: 1.8
  Hif1a gene expression relative to 8 months smoked rats: 1.4
  HpGF gene expression relative to 8 months smoked rats: 3.1
  Hyou1 gene expression relative to 8 months smoked rats: 3.3
  Il6 gene expression relative to 8 months smoked rats: 2.4
  Il8ra/CXCR1 gene expression relative to 8 months smoked rats: 4.5
  Il8rb/CXCR2 gene expression relative to 8 months smoked rats: 2.0
  Kdr gene expression relative to 8 months smoked rats: 1.9
  Mmp9 gene expression relative to 8 months smoked rats: 1.5
  Mmp12 gene expression relative to 8 months smoked rats: 5.9
  PDGFA gene expression relative to 8 months smoked rats: 2.9
  Pgf gene expression relative to 8 months smoked rats: 0.9
  Rbp1 gene expression relative to 8 months smoked rats: 3.5
  Serpina1 gene expression relative to 8 months smoked rats: 1.5
  Sftpa1 gene expression relative to 8 months smoked rats: 4.4
  Sftpb gene expression relative to 8 months smoked rats: 2.1
  Slpi gene expression relative to 8 months smoked rats: 1.6
  TNF gene expression relative to 8 months smoked rats: 4.2
  Tek gene expression relative to 8 months smoked rats: 1.3
  Tgfb1 gene expression relative to 8 months smoked rats: 2.0
  Tgfbr2 gene expression relative to 8 months smoked rats: 1.5
  Tgm2 gene expression relative to 8 months smoked rats: 28.3
  Timp3 gene expression relative to 8 months smoked rats: 2.9
  VEGFa gene expression relative to 8 months smoked rats: 2.3
[1]; [5]
  Adam17 gene expression relative to 8 months smoked rats: 7.8
  Angpt1 gene expression relative to 8 months smoked rats: 3.1
  Areg gene expression relative to 8 months smoked rats: 7.2
  Colla1 gene expression relative to 8 months smoked rats: 7.9
  Crabp2 gene expression relative to 8 months smoked rats: 1.4
  Csf2 gene expression relative to 8 months smoked rats: 2.9
  Cxcl1 gene expression relative to 8 months smoked rats: 6.5
  Cxcl2 gene expression relative to 8 months smoked rats: 3.4
  Cxcl5 gene expression relative to 8 months smoked rats: 81.6
  Cyp26a1 gene expression relative to 8 months smoked rats: 3.7
  EGFR gene expression relative to 8 months smoked rats: 4.0
  Eln gene expression relative to 8 months smoked rats: 9.4
  FGF7 gene expression relative to 8 months smoked rats: 1.6
  Flt1 gene expression relative to 8 months smoked rats: 2.6
  Hif1a gene expression relative to 8 months smoked rats: 2.0
  HpGF gene expression relative to 8 months smoked rats: 5.6
  Hyou1 gene expression relative to 8 months smoked rats: 5.8
  Il6 gene expression relative to 8 months smoked rats: 4.5
  Il8ra/CXCR1 gene expression relative to 8 months smoked rats: 4.2
  Il8rb/CXCR2 gene expression relative to 8 months smoked rats: 2.5
  Kdr gene expression relative to 8 months smoked rats: 1.7
  Mmp9 gene expression relative to 8 months smoked rats: 1.9
  Mmp12 gene expression relative to 8 months smoked rats: 7.3
  PDGFA gene expression relative to 8 months smoked rats: 4.5
  Pgf gene expression relative to 8 months smoked rats: 2.7
  Rbp1 gene expression relative to 8 months smoked rats: 3.9
  Serpina1 gene expression relative to 8 months smoked rats: 2.9
  Sftpa1 gene expression relative to 8 months smoked rats: 7.0
  Sftpb gene expression relative to 8 months smoked rats: 2.9
  Slpi gene expression relative to 8 months smoked rats: 4.4
  TNF gene expression relative to 8 months smoked rats: 4.0
  Tek gene expression relative to 8 months smoked rats: 1.3
  Tgfb1 gene expression relative to 8 months smoked rats: 3.2
  Tgfbr2 gene expression relative to 8 months smoked rats: 2.1
  Tgm2 gene expression relative to 8 months smoked rats: 24.6
  Timp3 gene expression relative to 8 months smoked rats: 4.8
  VEGFa gene expression relative to 8 months smoked rats: 2.9
[1]; rats smoked 8 months, then R667 daily 30 days
  Restoration of smoke-suppressed gene expression in lung: restore expression of these genes to near-normal levels
[2]; [3]
  ELN expression level from microarray, relative to the 8 months smoked rat: 2.8 fold
  VEGF expression level from microarray, relative to the 8 months smoked rat: 1.7 fold
[2]; [4]
  ELN expression level from microarray, relative to the 8 months smoked rat: 3.1 fold
  VEGF expression level from microarray, relative to the 8 months smoked rat: 1.5 fold
[2]; [5]
  ELN expression level from microarray, relative to the 8 months smoked rat: 3.8 fold
  VEGF expression level from microarray, relative to the 8 months smoked rat: 2.4 fold
tropoelastin
  Tropoelastin in lung tissue (effect of treatment): partially restored

## CC1=C(/C=C/C(C)=C/C=C/C(C)=C/C(=O)O)C(C)(C)CCC1 [ATRA, all-trans retinoic acid, reference compound]
tropoelastin
  Tropoelastin in lung tissue (effect of treatment): partially restored
